Results: ChEMBL document CHEMBL4396908, “Sulfamates in drug design and discovery: Pre-clinical and clinical investigations” (Eur J Med Chem, 2019)
pIC50, pKi: −log10 of the molar value. One block for each molecule: values may come before it.

Key:
Carbonic anhydrase 2 [1] = molecular target: T1, Carbonic anhydrase 2 (Homo sapiens, UniProt P00918); assay: Inhibition of human carbonic anhydrase 2
Carbonic anhydrase 4 = Carbonic anhydrase 4 (Homo sapiens, UniProt P22748); assay: Inhibition of human carbonic anhydrase 4
Chain of Carbonic anhydrase 4 (P22748 whole entry): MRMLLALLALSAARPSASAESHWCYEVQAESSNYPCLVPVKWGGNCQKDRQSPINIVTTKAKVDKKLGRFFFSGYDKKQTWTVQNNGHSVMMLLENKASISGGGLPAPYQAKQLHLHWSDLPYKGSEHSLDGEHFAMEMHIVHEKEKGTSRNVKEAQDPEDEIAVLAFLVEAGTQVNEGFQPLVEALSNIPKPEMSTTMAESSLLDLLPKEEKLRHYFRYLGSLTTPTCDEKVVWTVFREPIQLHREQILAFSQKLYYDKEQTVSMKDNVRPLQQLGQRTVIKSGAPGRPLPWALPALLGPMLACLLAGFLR

Carbonic anhydrase 9 = Carbonic anhydrase 9 (Homo sapiens, UniProt Q16790); assay: Inhibition of human carbonic anhydrase 9
Homo sapiens = species: Homo sapiens; assay: Selectivity ratio of IC50 for human carbonic anhydrase 1 to IC50 for human carbonic anhydrase 9
MCF7 [2] = assay: Antiproliferative activity against estrogen receptor-positive human MCF7 cells; type: functional, cell-based
MDA-MB-231 [3] = assay: Antiproliferative activity against estrogen receptor-negative human MDA-MB-231 cells; type: functional, cell-based
MCF7 [4] = assay: Antitumor activity against human MCF7 cells xenografted in MF-1 nude mouse assessed as tumor growth inhibition at 5 mg/kg, po treated for 4 weeks in presence of 2-deoxy-D-glucose by immunohistochemistry relative to control; type: functional; settings: 672 h, read-out: TGI
Steryl-sulfatase [5] = molecular target: T2, Steryl-sulfatase (Homo sapiens, UniProt P08842); assay: Inhibition of steroid sulfatase (unknown origin) expressed in human MCF7 cells; type: cell-based
T2 sequence (P08842 whole entry): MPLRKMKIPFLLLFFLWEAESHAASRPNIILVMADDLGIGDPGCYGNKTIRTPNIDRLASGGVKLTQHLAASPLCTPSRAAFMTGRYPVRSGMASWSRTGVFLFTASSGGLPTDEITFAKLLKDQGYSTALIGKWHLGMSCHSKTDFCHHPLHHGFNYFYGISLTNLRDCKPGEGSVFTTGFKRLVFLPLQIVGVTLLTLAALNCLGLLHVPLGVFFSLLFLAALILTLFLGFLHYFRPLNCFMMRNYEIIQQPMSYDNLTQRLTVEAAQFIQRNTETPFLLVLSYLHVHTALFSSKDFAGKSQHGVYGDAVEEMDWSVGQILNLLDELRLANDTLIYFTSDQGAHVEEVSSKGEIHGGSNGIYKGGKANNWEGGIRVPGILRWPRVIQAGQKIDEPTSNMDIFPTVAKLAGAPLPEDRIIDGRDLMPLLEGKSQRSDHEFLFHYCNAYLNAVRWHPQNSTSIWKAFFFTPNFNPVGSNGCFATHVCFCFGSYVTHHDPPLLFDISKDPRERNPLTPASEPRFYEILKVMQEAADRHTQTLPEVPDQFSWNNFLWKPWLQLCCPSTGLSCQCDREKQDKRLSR

Steryl-sulfatase [6] = molecular target: T2, Steryl-sulfatase; assay: Inhibition of steroid sulfatase (unknown origin) expressed in CHO cells; type: cell-based
Rattus norvegicus [7] = assay: In vivo inhibition of steroid sulfatase in Wistar rat assessed as enzyme recovery at 10 mg/kg, sc single dose treated for 3 days measured after 1 week relative to control; type: functional; set-up: scale not given: the % may be the effect or the level left
Rattus norvegicus [8] = assay: In vivo inhibition of steroid sulfatase in Wistar rat assessed as enzyme recovery at 10 mg/kg, sc single dose treated for 10 days measured after 15 days relative to control; type: functional; set-up: scale not given: the % may be the effect or the level left
Rattus norvegicus [9] = assay: In vivo inhibition of steroid sulfatase in Wistar rat at 10 mg/kg, po relative to control; type: functional
Steryl-sulfatase [10] = molecular target: T2, Steryl-sulfatase; assay: Inhibition of steroid sulfatase (unknown origin)
Rattus norvegicus [11] = assay: In vivo inhibition of aromatase in Wistar rat at 10 mg/kg, po after 3 hrs relative to control; type: functional
Rattus norvegicus [12] = assay: In vivo inhibition of steroid sulfatase in Wistar rat at 10 mg/kg, po after 3 hrs relative to control; type: functional
Rattus norvegicus [13] = species: Rattus norvegicus; assay: animal or person; settings: Wistar, 3 h
Steryl-sulfatase [14] = molecular target: T2, Steryl-sulfatase; assay: Inhibition of human placental steroid sulfatase
Steryl-sulfatase [15] = molecular target: T2, Steryl-sulfatase; assay: Inhibition of steroid sulfatase in human MCF7 cells; type: cell-based
Steryl-sulfatase [16] = molecular target: T2, Steryl-sulfatase; assay: Inhibition of steroid sulfatase derived form human placental microsomes; set-up: species or system Placenta
MCF7 [17] = assay: Antiproliferative activity against human MCF7 cells; type: functional, cell-based
MDA-MB-231 [18] = assay: Antiproliferative activity against human MDA-MB-231 cells; type: functional, cell-based
Steryl-sulfatase [19] = molecular target: T2, Steryl-sulfatase; assay: Inhibition of human placental steroid sulfatase expressed in HEK293 cells using [3H] E1S as substrate after 2 hrs by liquid scintillation counting method; type: cell-based
Acetylcholinesterase = Acetylcholinesterase (Electrophorus electricus, UniProt O42275); assay: Inhibition of electric ee AChE using acetylthiocholine iodide as substrate preincubated for 15 mins followed by substrate addition by Ellman's method
Chain of Acetylcholinesterase (O42275 whole entry): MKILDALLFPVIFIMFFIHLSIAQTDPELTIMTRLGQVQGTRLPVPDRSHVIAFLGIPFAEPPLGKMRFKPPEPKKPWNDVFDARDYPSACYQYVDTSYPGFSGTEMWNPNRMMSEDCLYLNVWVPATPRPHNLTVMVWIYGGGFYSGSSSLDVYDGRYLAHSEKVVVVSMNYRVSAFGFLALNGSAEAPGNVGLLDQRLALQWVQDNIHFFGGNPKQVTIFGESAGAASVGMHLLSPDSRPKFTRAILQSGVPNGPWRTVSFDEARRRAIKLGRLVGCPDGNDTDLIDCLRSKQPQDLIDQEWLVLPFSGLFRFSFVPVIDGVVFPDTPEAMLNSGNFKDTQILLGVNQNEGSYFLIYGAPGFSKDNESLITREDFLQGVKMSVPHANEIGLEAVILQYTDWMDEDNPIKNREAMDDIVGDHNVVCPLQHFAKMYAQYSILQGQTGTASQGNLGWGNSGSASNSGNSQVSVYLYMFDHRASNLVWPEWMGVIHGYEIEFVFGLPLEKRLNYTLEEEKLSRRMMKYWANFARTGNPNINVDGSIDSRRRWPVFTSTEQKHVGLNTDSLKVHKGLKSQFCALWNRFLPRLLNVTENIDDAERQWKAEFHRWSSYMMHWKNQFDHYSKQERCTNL

Carbonic anhydrase 2 [20] = molecular target: T1, Carbonic anhydrase 2; assay: Inhibition of human carbonic anhydrase 2 using p-nitrophenylacetate as substrate after 3 mins
Carbonic anhydrase 1 = Carbonic anhydrase 1 (Homo sapiens, UniProt P00915); assay: Inhibition of human carbonic anhydrase 1 using p-nitrophenylacetate as substrate after 3 mins
Chain of Carbonic anhydrase 1 (P00915 whole entry): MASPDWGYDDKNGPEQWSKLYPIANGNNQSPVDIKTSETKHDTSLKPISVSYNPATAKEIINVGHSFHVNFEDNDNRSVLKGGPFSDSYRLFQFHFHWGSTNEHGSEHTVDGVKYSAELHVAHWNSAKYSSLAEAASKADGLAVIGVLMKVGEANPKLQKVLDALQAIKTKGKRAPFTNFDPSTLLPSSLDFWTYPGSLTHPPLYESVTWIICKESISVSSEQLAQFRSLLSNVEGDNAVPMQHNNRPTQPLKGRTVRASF

Cholinesterase = Cholinesterase (Equus caballus, UniProt P81908); assay: Inhibition of equine BChE using butyrylthiocholine iodide as substrate preincubated for 15 mins followed by substrate addition by Ellman's method
Chain of Cholinesterase (P81908 whole entry): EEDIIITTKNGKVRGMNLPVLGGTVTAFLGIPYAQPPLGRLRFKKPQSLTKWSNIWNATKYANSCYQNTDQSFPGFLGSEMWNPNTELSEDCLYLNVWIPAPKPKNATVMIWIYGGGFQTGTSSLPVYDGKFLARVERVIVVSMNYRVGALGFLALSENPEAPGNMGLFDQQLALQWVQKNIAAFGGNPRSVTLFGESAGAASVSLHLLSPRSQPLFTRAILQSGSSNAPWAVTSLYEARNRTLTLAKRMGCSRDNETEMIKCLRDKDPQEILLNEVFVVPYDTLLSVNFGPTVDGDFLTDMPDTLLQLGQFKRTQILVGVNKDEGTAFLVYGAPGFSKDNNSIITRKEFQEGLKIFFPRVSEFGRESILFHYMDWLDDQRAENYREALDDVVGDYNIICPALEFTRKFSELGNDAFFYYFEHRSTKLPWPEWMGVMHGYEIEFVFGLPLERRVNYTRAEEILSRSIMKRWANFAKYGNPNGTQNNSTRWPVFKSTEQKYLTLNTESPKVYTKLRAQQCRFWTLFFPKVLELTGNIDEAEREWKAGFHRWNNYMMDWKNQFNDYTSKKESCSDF

MCF7 [21] = assay: Antiproliferative activity against human MCF7 cells at 1 uM relative to control; type: functional

Compound: COc1cc(/C=C2/SC(Nc3ccc(OS(N)(=O)=O)cc3)=NC2=O)cc(OC)c1OC
pKi (Carbonic anhydrase 2 [1]): 7.07 to 7.54
pKi (Carbonic anhydrase 4): 7.37
pKi (Carbonic anhydrase 9): 7.13 to 7.75

Compound: COc1cc2c(cc1OS(N)(=O)=O)CC[C@@H]1[C@@H]2CC[C@]2(C)[C@@H](OS(N)(=O)=O)CC[C@@H]12
pIC50 (MCF7 [2]): 6.60
pIC50 (MDA-MB-231 [3]): 6.54
inhibition in vivo at 5 mg/kg (MCF7 [4]): 76%

Compound: C[C@]12CC[C@@H]3c4ccc(OS(N)(=O)=O)cc4CC[C@H]3[C@@H]1CCC2=O [EMATE]
Activity (Rattus norvegicus [7]): 10 - 15%
Activity (Rattus norvegicus [8]): 30%

Compound: NS(=O)(=O)Oc1ccc(NC2=NC(=O)/C(=C\c3ccc(F)cc3)S2)cc1
pKi (Carbonic anhydrase 2 [1]): 7.07 to 7.54
pKi (Carbonic anhydrase 9): 7.13 to 7.75

Compound: N#Cc1ccc(N(Cc2ccc(OS(N)(=O)=O)cc2)n2cnnc2)cc1
inhibition in vivo at 10 mg/kg (Rattus norvegicus [9]): > 98%

Compound: COc1ccc(/C=C2/SC(Nc3ccc(OS(N)(=O)=O)cc3)=NC2=O)cc1
pKi (Carbonic anhydrase 2 [1]): 7.07 to 7.54
pKi (Carbonic anhydrase 9): 7.13 to 7.75

Compound: NS(=O)(=O)Oc1ccc(NC2=NC(=O)/C(=C\c3ccc(Cl)cc3)S2)cc1
pKi (Carbonic anhydrase 2 [1]): 7.07 to 7.54
pKi (Carbonic anhydrase 9): 7.13 to 7.75

Compound: NS(=O)(=O)Oc1ccc(NC2=NC(=O)/C(=C\c3cccc4ccccc34)S2)cc1
pKi (Carbonic anhydrase 2 [1]): 7.07 to 7.54
pKi (Carbonic anhydrase 9): 7.13 to 7.75

Compound: Cc1c(Cc2ccccc2)c(=O)oc2cc(OS(N)(=O)=O)ccc12
pIC50 (Steryl-sulfatase [15]): 9.00
pIC50 (Steryl-sulfatase [16]): 8.10

Compound: CCc1cc2c(cc1OS(N)(=O)=O)CC[C@@H]1[C@@H]2CC[C@]2(C)[C@@H](OS(N)(=O)=O)CC[C@@H]12
pIC50 (MCF7 [17]): 7.15
pIC50 (MDA-MB-231 [18]): 7.10

Compound: NS(=O)(=O)Oc1ccc(CCNC(=O)C(F)(F)C(F)(F)C(F)(F)C(F)(F)C(F)(F)C(F)(F)C(F)(F)C(F)(F)C(F)(F)C(F)(F)F)cc1
pIC50 (Steryl-sulfatase [14]): 5.66

Compound: CC(C)[C@@H]1CC[C@@H](C)C[C@H]1OS(=O)(=O)NC(c1ccccc1)c1ccccc1
pIC50 (Acetylcholinesterase): 6.69
pIC50 (Carbonic anhydrase 2 [20]): 7.80
pIC50 (Carbonic anhydrase 1): 7.36
pIC50 (Cholinesterase): 6.61

Compound: Cc1ccc(/C=C2/SC(Nc3ccc(OS(N)(=O)=O)cc3)=NC2=O)cc1
pKi (Carbonic anhydrase 2 [1]): 7.07 to 7.54
pKi (Carbonic anhydrase 9): 7.13 to 7.75

Compound: COc1cc2c(cc1OS(N)(=O)=O)CC[C@@H]1[C@@H]2CC[C@]2(C)C(=O)CC[C@@H]12
Activity (MCF7 [21]): 52%

Compound: CCCCCCc1c(C)c2ccc(OS(N)(=O)=O)cc2oc1=O
pIC50 (Steryl-sulfatase [15]): 9.17
pIC50 (Steryl-sulfatase [16]): 7.49

Continued, in another order:

pIC50 (Carbonic anhydrase 9): 7.00
Ratio IC50 (Homo sapiens): 3.38
Compound: NS(=O)(=O)Oc1ccc(/C=C/C(=O)C[C@@H]2O[C@H](CO)[C@@H](O)[C@H](O)[C@H]2O)cc1

pIC50 (Steryl-sulfatase [5]): 7.50 to 9.82
pIC50 (Steryl-sulfatase [6]): 7.50 to 9.82
Compound: NS(=O)(=O)Oc1ccc2nc(C=C3C4CC5CC(C4)CC3C5)oc2c1

pKi (Carbonic anhydrase 2 [1]): 7.07 to 7.54
pKi (Carbonic anhydrase 4): 7.12
pKi (Carbonic anhydrase 9): 7.13 to 7.75
Compound: NS(=O)(=O)Oc1ccc(NC2=NC(=O)/C(=C\c3ccccc3)S2)cc1

pKi (Carbonic anhydrase 2 [1]): 7.07 to 7.54
pKi (Carbonic anhydrase 9): 7.13 to 7.75
Compound: NS(=O)(=O)Oc1ccc(NC2=NC(=O)/C(=C\c3ccc(C(F)(F)F)cc3)S2)cc1

pIC50 (Steryl-sulfatase [10]): 9.00
Compound: NS(=O)(=O)Oc1ccc2c3c(c(=O)oc2c1)CCCCCC3

pIC50 (Rattus norvegicus [13]): 6.69
Compound: N#Cc1ccc(N(Cc2ccc3c(Br)c(OS(N)(=O)=O)ccc3c2)n2cnnc2)cc1
inhibition in vivo at 10 mg/kg (Rattus norvegicus [11]): 93%
inhibition in vivo at 10 mg/kg (Rattus norvegicus [12]): 93%

pIC50 (Steryl-sulfatase [14]): 5.67
Compound: NS(=O)(=O)Oc1ccc2ccc(=O)oc2c1

pKi (Carbonic anhydrase 2 [1]): 7.07 to 7.54
pKi (Carbonic anhydrase 9): 7.13 to 7.75
Compound: NS(=O)(=O)Oc1ccc(NC2=NC(=O)/C(=C\c3ccc([N+](=O)[O-])cc3)S2)cc1

pIC50 (Steryl-sulfatase [19]): 9.40
Compound: CCCCCCC(O)(CCCCc1ccc(OS(N)(=O)=O)cc1)c1ccc(C(C)(C)C)cc1 (centres undefined)

pIC50 (Steryl-sulfatase [10]): 7.52
Compound: Cc1cc(=O)oc2cc(OS(N)(=O)=O)ccc12
